Assay results published in the NIST ThermoML archive (doi:10.1016/j.jct.2004.01.006).
Values joined by “and” are separate entries in the source; they are usually repeats but may differ in a detail not shown here. Identical values can stand only once.

Assay: molar heat capacity at constant pressure
Details: 101.33 kPa

O=Cc1ccc(Cl)cc1Cl [2,4-dichlorobenzaldehyde]
Details | molar heat capacity at constant pressure
79.17 K, Crystal | 71.3 J/K/mol
80 K, Crystal | 71.33 J/K/mol
81.36 K, Crystal | 72.02 J/K/mol
83.11 K, Crystal | 72.63 J/K/mol
85 K, Crystal | 73.98 J/K/mol
85.3 K, Crystal | 73.72 J/K/mol
87.49 K, Crystal | 74.91 J/K/mol
89.6 K, Crystal | 76.29 J/K/mol
90 K, Crystal | 76.75 J/K/mol
91.66 K, Crystal | 77.86 J/K/mol
93.69 K, Crystal | 79.02 J/K/mol
95 K, Crystal | 79.6 J/K/mol
95.68 K, Crystal | 80.2 J/K/mol
97.64 K, Crystal | 81.37 J/K/mol
99.56 K, Crystal | 82.67 J/K/mol
100 K, Crystal | 82.48 J/K/mol
101.45 K, Crystal | 83.56 J/K/mol
103.32 K, Crystal | 84.39 J/K/mol
105 K, Crystal | 85.38 J/K/mol
105.16 K, Crystal | 85.43 J/K/mol
106.97 K, Crystal | 86.65 J/K/mol
108.76 K, Crystal | 87.94 J/K/mol
110 K, Crystal | 88.26 J/K/mol
110.53 K, Crystal | 88.83 J/K/mol
112.28 K, Crystal | 89.53 J/K/mol
114 K, Crystal | 90.58 J/K/mol
115 K, Crystal | 91.11 J/K/mol
115.71 K, Crystal | 91.48 J/K/mol
117.4 K, Crystal | 92.47 J/K/mol
119.07 K, Crystal | 93.42 J/K/mol
120 K, Crystal | 93.92 J/K/mol
120.73 K, Crystal | 94.06 J/K/mol
122.36 K, Crystal | 94.81 J/K/mol
123.99 K, Crystal | 95.87 J/K/mol
125 K, Crystal | 96.69 J/K/mol
125.6 K, Crystal | 96.98 J/K/mol
127.19 K, Crystal | 97.8 J/K/mol
128.78 K, Crystal | 98.46 J/K/mol
130 K, Crystal | 99.4 J/K/mol
130.34 K, Crystal | 99.55 J/K/mol
131.9 K, Crystal | 100.68 J/K/mol
133.44 K, Crystal | 101.08 J/K/mol
134.97 K, Crystal | 101.62 J/K/mol
135 K, Crystal | 102.07 J/K/mol
136.49 K, Crystal | 102.52 J/K/mol
138 K, Crystal | 103.61 J/K/mol
139.5 K, Crystal | 104.14 J/K/mol
140 K, Crystal | 104.7 J/K/mol
140.99 K, Crystal | 104.87 J/K/mol
142.47 K, Crystal | 105.48 J/K/mol
143.93 K, Crystal | 106.66 J/K/mol
145 K, Crystal | 107.29 J/K/mol
145.39 K, Crystal | 107.75 J/K/mol
146.84 K, Crystal | 108.26 J/K/mol
148.28 K, Crystal | 109.04 J/K/mol
149.71 K, Crystal | 109.83 J/K/mol
150 K, Crystal | 109.85 J/K/mol
151.13 K, Crystal | 111.12 J/K/mol
152.54 K, Crystal | 111.74 J/K/mol
153.94 K, Crystal | 112.08 J/K/mol
155 K, Crystal | 112.39 J/K/mol
155.34 K, Crystal | 112.93 J/K/mol
157.51 K, Crystal | 113.86 J/K/mol
160 K, Crystal | 114.92 J/K/mol
160.42 K, Crystal | 115.39 J/K/mol
163.32 K, Crystal | 116.39 J/K/mol
165 K, Crystal | 117.44 J/K/mol
166.18 K, Crystal | 117.94 J/K/mol
169.01 K, Crystal | 119.36 J/K/mol
170 K, Crystal | 119.97 J/K/mol
171.81 K, Crystal | 121.11 J/K/mol
174.59 K, Crystal | 122.69 J/K/mol
175 K, Crystal | 122.52 J/K/mol
177.33 K, Crystal | 124.06 J/K/mol
180 K, Crystal | 125.09 J/K/mol
180.05 K, Crystal | 125.43 J/K/mol
182.75 K, Crystal | 126.44 J/K/mol
185 K, Crystal | 127.68 J/K/mol
185.43 K, Crystal | 127.77 J/K/mol
190 K, Crystal | 130.3 J/K/mol
190.71 K, Crystal | 130.68 J/K/mol
193.31 K, Crystal | 131.82 J/K/mol
195 K, Crystal | 133 J/K/mol
195.91 K, Crystal | 133.03 J/K/mol
198.41 K, Crystal | 134.61 J/K/mol
200 K, Crystal | 135.65 J/K/mol
200.76 K, Crystal | 135.6 J/K/mol
203.12 K, Crystal | 136.47 J/K/mol
205 K, Crystal | 138.37 J/K/mol
205.61 K, Crystal | 137.67 J/K/mol
208.11 K, Crystal | 139.14 J/K/mol
210 K, Crystal | 141.12 J/K/mol
210.61 K, Crystal | 140.62 J/K/mol
213.05 K, Crystal | 142.39 J/K/mol
215 K, Crystal | 143.89 J/K/mol
215.46 K, Crystal | 143.66 J/K/mol
217.88 K, Crystal | 145.35 J/K/mol
220 K, Crystal | 146.69 J/K/mol
220.3 K, Crystal | 147.01 J/K/mol
222.73 K, Crystal | 148.63 J/K/mol
225 K, Crystal | 149.5 J/K/mol
225.15 K, Crystal | 150.44 J/K/mol
227.5 K, Crystal | 152.1 J/K/mol
229.92 K, Crystal | 153.24 J/K/mol
230 K, Crystal | 152.31 J/K/mol
232.35 K, Crystal | 154.92 J/K/mol
234.92 K, Crystal | 156.38 J/K/mol
235 K, Crystal | 155.12 J/K/mol
237.8 K, Crystal | 157.76 J/K/mol
240 K, Crystal | 157.9 J/K/mol
240.46 K, Crystal | 159.08 J/K/mol
242.88 K, Crystal | 160.14 J/K/mol
245 K, Crystal | 160.64 J/K/mol
245.08 K, Crystal | 161.43 J/K/mol
247.12 K, Crystal | 162.34 J/K/mol
249.24 K, Crystal | 163.27 J/K/mol
250 K, Crystal | 163.39 J/K/mol
251.44 K, Crystal | 164.55 J/K/mol
253.56 K, Crystal | 165.45 J/K/mol
255 K, Crystal | 166.07 J/K/mol
255.68 K, Crystal | 166.2 J/K/mol
257.73 K, Crystal | 166.92 J/K/mol
259.85 K, Crystal | 167.67 J/K/mol
260 K, Crystal | 168.69 J/K/mol
261.89 K, Crystal | 168.77 J/K/mol
264.01 K, Crystal | 169.61 J/K/mol
265 K, Crystal | 171.25 J/K/mol
266.06 K, Crystal | 170.55 J/K/mol
268.03 K, Crystal | 171.61 J/K/mol
270 K, Crystal | 173.73 J/K/mol
270.08 K, Crystal | 172.38 J/K/mol
272.05 K, Crystal | 173.75 J/K/mol
274.01 K, Crystal | 174.95 J/K/mol
275 K, Crystal | 176.14 J/K/mol
275.99 K, Crystal | 175.77 J/K/mol
277.95 K, Crystal | 176.86 J/K/mol
279.85 K, Crystal | 177.84 J/K/mol
280 K, Crystal | 178.48 J/K/mol
281.74 K, Crystal | 178.91 J/K/mol
283.64 K, Crystal | 179.72 J/K/mol
285 K, Crystal | 180.75 J/K/mol
285.53 K, Crystal | 180.86 J/K/mol
287.42 K, Crystal | 181.6 J/K/mol
289.24 K, Crystal | 182.74 J/K/mol
290 K, Crystal | 182.93 J/K/mol
291.06 K, Crystal | 183.73 J/K/mol
292.88 K, Crystal | 184.79 J/K/mol
294.62 K, Crystal | 185.72 J/K/mol
295 K, Crystal | 185.12 J/K/mol
296.36 K, Crystal | 186.66 J/K/mol
298.03 K, Crystal | 187.45 J/K/mol
298.15 K, Crystal | 186.47 J/K/mol
299.7 K, Crystal | 187.95 J/K/mol
301.36 K, Crystal | 188.77 J/K/mol
303.86 K, Crystal | 189.94 J/K/mol
305 K, Crystal | 189.4 J/K/mol
306.12 K, Crystal | 191.07 J/K/mol
308.39 K, Crystal | 191.8 J/K/mol
310 K, Crystal | 191.58 J/K/mol
310.67 K, Crystal | 192.53 J/K/mol
312.95 K, Crystal | 193.73 J/K/mol
315 K, Crystal | 193.86 J/K/mol
319.7 K, Crystal | 196.52 J/K/mol
320 K, Crystal | 196.27 J/K/mol
321.89 K, Crystal | 197.35 J/K/mol
324.09 K, Crystal | 198.21 J/K/mol
325 K, Crystal | 198.9 J/K/mol
326.21 K, Crystal | 199.12 J/K/mol
328.41 K, Crystal | 199.91 J/K/mol
330 K, Crystal | 201.83 J/K/mol
330.53 K, Crystal | 200.78 J/K/mol
332.65 K, Crystal | 201.79 J/K/mol
334.67 K, Crystal | 202.59 J/K/mol
335 K, Crystal | 205.15 J/K/mol
336.74 K, Crystal | 203.39 J/K/mol
338.77 K, Crystal | 205.71 J/K/mol
340 K, Crystal | 208.96 J/K/mol
350 K, Liquid | 208.08 J/K/mol
350.08 K, Liquid | 208.1 J/K/mol
351.82 K, Liquid | 208.76 J/K/mol
353.56 K, Liquid | 209.27 J/K/mol
355 K, Liquid | 209.85 J/K/mol
355.74 K, Liquid | 210.16 J/K/mol
357.14 K, Liquid | 210.51 J/K/mol
358.64 K, Liquid | 210.8 J/K/mol
360 K, Liquid | 211.16 J/K/mol
361.51 K, Liquid | 211.51 J/K/mol
362.95 K, Liquid | 211.74 J/K/mol
364.32 K, Liquid | 212.33 J/K/mol
365 K, Liquid | 212.44 J/K/mol
365.61 K, Liquid | 212.74 J/K/mol
366.82 K, Liquid | 213.06 J/K/mol
367.95 K, Liquid | 213.48 J/K/mol
369.01 K, Liquid | 213.84 J/K/mol
369.7 K, Liquid | 214.36 J/K/mol
370 K, Liquid | 214.39 J/K/mol and 214.31 J/K/mol
370.76 K, Liquid | 214.45 J/K/mol
371.51 K, Liquid | 214.51 J/K/mol and 214.66 J/K/mol
